For 2 compounds, Ki results are on record in publication PMC2684828 (Analytical chemistry, 2009).

pKi: −log10 of the molar value.

The target of this test is T1, Cytochrome P450cam (CYP101) (Pseudomonas putida, UniProt P00183).
T1 sequence (P00183 2-415): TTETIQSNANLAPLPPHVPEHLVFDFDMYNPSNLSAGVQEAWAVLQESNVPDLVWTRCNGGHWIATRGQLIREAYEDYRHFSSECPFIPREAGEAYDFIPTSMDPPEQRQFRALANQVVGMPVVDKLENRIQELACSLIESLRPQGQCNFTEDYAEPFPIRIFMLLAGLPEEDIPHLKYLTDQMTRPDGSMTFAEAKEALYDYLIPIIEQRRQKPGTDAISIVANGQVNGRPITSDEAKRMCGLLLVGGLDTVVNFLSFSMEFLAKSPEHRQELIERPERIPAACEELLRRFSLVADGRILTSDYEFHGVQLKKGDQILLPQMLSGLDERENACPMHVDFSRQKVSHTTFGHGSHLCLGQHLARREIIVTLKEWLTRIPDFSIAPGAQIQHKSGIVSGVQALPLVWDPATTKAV
As to the kind of experiment: enzyme/DNA film biosensor. Format: biochemical.

A word on the pKi: it is −log10 of the Ki, conventionally taken in molar units.

As to `O=C(O)Cc1c[nH]cn1` [Imid.4AA, imidazole-4-acetic acid], the pKi was 3.85. As for `c1c[nH]cn1` [Imid., imidazole], the figure is 3.61.
